In patent US6403554B2, “Polyunsaturated fatty acid derivatives and their use” (Ardenia Investments Ltd., priority 1998, dated 2002):

Legend:
[1] = test system: antibody-forming cells (AFC) in the spleen; assay: Humoral immune response: counting antibody-forming cells (AFC) in the spleen according to Cunningham, mice immunised with sheep erythrocytes; format: in vivo, C57B1/6 mice; conditions: for Amount of antibody-forming cells per 10^6 spleen cells, M ± SEM (relative amount of AFC) / Amount of antibody-forming cells per spleen, M ± SEM (total AFC amount): 5-th day after injection, female mice; for Effect, % on AFC per 10^6 spleen cells / Effect, % on AFC per spleen: versus animals immunised only with sheep erythrocytes; for Dose at which immunostimulating effect in vivo is displayed (micelle form): compound alone
Experimental: (§1) 0.15 ml of compound 10 was administered intravenously to 6 mice females of CS7B1/6 line (weight 18-22 g) in doses of 45.5, 91 and 136.5 μg of compound 10 per capita for each testing group according to the dose. Simultaneously, a suspension of 5·10^7 sheep erythrocytes was injected intraperitoneally (0.2 ml per capita). Mice in the control group were injected intravenously with equal volume of saline. The effects of compound 10 on humoral immune response were analyzed both by counting the quantity of AFC in the spleen according to Cunningham (per 10^6 spleen cells and per spleen) and estimating the titers of hemagglutining antibodies in serum of the animals (Cunningham A. J., Nature, 1965, Vol.207, No 5001. P.1106-1107), while the titers of hemagglutinating antibodies were evaluated according to litterature (Evans J. et al., Cell, 1974; Vol 3., p.153-158, Feizi T., Menger E., Transfusion, 1970, Vol. 10, p.33-35,).
(§2) 0.15 ml of compound 11 was administered intravenously to 6 female mice of the C57B1/6 line (weight 18-22 g) in doses of 45.5, 91 and 136.5 μg of compound 11 per capita for each testing group according to the dose. Simultaneously, a suspension of 5·10^7 sheep erytrocytes was injected intraperitoneally (0.2 ml per capita). Mice in the control group were injected intravenously with an equal volume of saline. The effects of compound 11 on humoral immune response was analysed both by counting the quantity of AFC in the spleen according to Cunningham (per 10^6 spleen cells and per spleen) and estimating the titers of hemagglutining antibodies in serum of the animals.
as §2, with “12” for “11”, “erythrocytes” for “erytrocytes”, “analyzed” for “analysed”
as §2, with “compound 8” for “compound 11”, “sheep erythrocytes” for “sheep erytrocytes”, “Mice of” for “Mice in”, “response were analyzed” for “response was analysed”
as §2, with “compound 3” for “compound 11”, “Mice of” for “Mice in”, “with” for “with an”, “response were” for “response was”
(§3) 0.15 ml of compound 4 was administered intravenously to 6 female mice of the C57B1/6 line (weight 18-22 g) in a doses of 45.5, 91 and 136.5 μg of compound 4 per capita for each testing group according to the dose. Simultaneously, a suspension of 5·10^7 sheep erythrocytes was injected intraperitoneally (0.2 ml per capita). […]

[2] = test system: hemagglutinating antibodies in serum; assay: Humoral immune response: titers of hemagglutinating antibodies in serum; format: in vivo, C57B1/6 mice; conditions: for Amount of hemagglutinins: serum, female mice; for Effect, % on hemagglutinins: versus control
Experimental: as §1, §2
as §2, with “12” for “11”, “erythrocytes” for “erytrocytes”, “analyzed” for “analysed”
as §2, with “compound 8” for “compound 11”, “sheep erythrocytes” for “sheep erytrocytes”, “Mice of” for “Mice in”, “response were analyzed” for “response was analysed”
as §2, with “compound 3” for “compound 11”, “Mice of” for “Mice in”, “with” for “with an”, “response were” for “response was”
as §3

Structure (SMILES) | Amount of antibody-forming cells per 10^6 spleen cells, M ± SEM (relative amount of AFC) ([1]; 45.5 μg/mouse i.v.) | Amount of antibody-forming cells per spleen, M ± SEM (total AFC amount) ([1]; 45.5 μg/mouse i.v.) | Effect, % on AFC per 10^6 spleen cells ([1]; 45.5 μg/mouse i.v.) [p >0.05%] | Effect, % on AFC per spleen ([1]; 45.5 μg/mouse i.v.) | Amount of antibody-forming cells per 10^6 spleen cells, M ± SEM (relative amount of AFC) ([1]; 91 μg/mouse i.v.) | Amount of antibody-forming cells per spleen, M ± SEM (total AFC amount) ([1]; 91 μg/mouse i.v.) | Amount of antibody-forming cells per 10^6 spleen cells, M ± SEM (relative amount of AFC) ([1]; 136.5 μg/mouse i.v.) | Amount of antibody-forming cells per spleen, M ± SEM (total AFC amount) ([1]; 136.5 μg/mouse i.v.) | Dose at which immunostimulating effect in vivo is displayed (micelle form) [1] [μg/mouse] | Amount of hemagglutinins ([2]; 45.5 μg/mouse i.v.) [Log2 T] | Effect, % on hemagglutinins ([2]; 45.5 μg/mouse i.v.) | Amount of hemagglutinins ([2]; 91 μg/mouse i.v.) [Log2 T] | Effect, % on hemagglutinins ([2]; 91 μg/mouse i.v.) | Amount of hemagglutinins ([2]; 136.5 μg/mouse i.v.) [Log2 T] | Effect, % on hemagglutinins ([2]; 136.5 μg/mouse i.v.) | other results
CC1=C(/C=C/C(C)=C/C=C/C(C)=C/C(=O)N[C@@H](Cc2ccc(OP(=O)(O)O)cc2)C(=O)O)C(C)(C)CCC1 (stereo in doubt) [Compound 4, N-(all-trans-retinoyl)-o-phospho-L-tyrosine] | 405.0±47.9 | 55.0±6.7 × 10^3 | −0.3 | −8.9 p > 0.05% | 692.9±44.8 | 87.6±4.3 × 10^3 | 1354.3±99.9 | 138.9±10.0 × 10^3 | 91 | 6.0 ± 0.3 | −3.2 p > 0.05% | 6.5 ± 0.4 | +4.8 p > 0.05% | 7.5±0.2 | – | Immunogenic activity ([1]; dose of 45.5 μg/mouse): no immunogenic activity; immunostimulating action ([1]; doses of 91 and 136.5 μg/mouse): high immunostimulating action
CC1=C(/C=C/C(C)=C/C=C/C(C)=C\C(=O)NCCOP(=O)(O)O)C(C)(C)CCC1 [Compound 1a, N-(13-cis-retinoyl)-o-phospho-2-aminoethanol] | – | – | – | – | – | – | – | – | 91 | 7.6 ± 0.3 | −1,3 p > 0.05% | 7.6 ± 0.2 | −1,3 p > 0.05% | 8.2 ± 0.4 | +6,5 p > 0.05% | –
CC/C=C\C/C=C\C/C=C\C/C=C\C/C=C\C/C=C\CCC(=O)N[C@H](C(=O)O)[C@@H](C)OP(=O)(O)O [Compound 11, N-docosahexaenoyl-o-phospho-L-threonine] | – | – | – | – | – | – | – | – | – | 8.3 ± 0.3 | – | 8.0 ± 0.5 | – | 9.3 ± 0.2 | – | –
CC/C=C\C/C=C\C/C=C\C/C=C\C/C=C\C/C=C\CCC(=O)N[C@@H](Cc1ccc(OP(=O)(O)O)cc1)C(=O)O [Compound 12, N-docosahexaenoyl-o-phospho-L-tyrosine] | 263.8±23.6 | 31.8±2.8 × 10^3 | −9.4 | −9.1 p >0.05% | 307.8±30.9 | 40.2±2.7 × 10^3 | 682.6±33.3 | 69.6±6.0 × 10^3 | – | 7.4 ± 0.3 | +2.8 p >0.05% | 7.4 ± 0.3 | +2.8 p > 0.05% | 7.8 ± 0.3 | +7.7 p > 0.05% | Effect, % on AFC per 10^6 spleen cells ([1]; 91 μg/mouse i.v.): +5.7 p > 0.05%; Effect, % on AFC per spleen ([1]; 91 μg/mouse i.v.): +14.9 p > 0.05%; immunostimulating action ([1]; dose of 136.5 μg/mouse): high immunostimulating action; Immunogenic activity ([1]; doses of 45.5 and 91 μg/mouse): no immunogenic activity
